Measured values from patent publication US9708336B2, “Metallo-beta-lactamase inhibitors” (priority 2014, dated 2017).
Like-named read-outs stand apart in the source and are kept apart here.

What was measured:
IMP-1 = IMP-1 (Serratia marcescens, UniProt P52699); assay: biochemical; assay type: biochemical; settings: read-out: IMP-1 IC50
[1] = system: Klebsiella pneumoniae expressing VIM-1 (IHMA599644); assay: Antibiotic potentiation activity: synergistic concentration (MITC95) with imipenem, OD600 growth; assay type: cell-based; settings: for Klebsiella pneumoniae expressing VIM-1 (IHMA 599644) MITC95: concentration giving 95% inhibition of bacterial growth
How it was run: (§1)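 Absorbance after a 22–24 h, 35 °C incubation served as the read-out. Wells held bacteria (saline suspension diluted 1:100 into 1.1× CAMHB), imipenem at 4 μg/ml final or optionally 1 μg/ml, and test compound.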

[2] = system: Escherichia coli expressing NDM-1 (CLB30016); assay: as above; assay type: cell-based; settings: for Escherichia coli expressing NDM-1 (CLB 30016) MITC95: concentration giving 95% inhibition of bacterial growth
How it was run: as §1

[3] = system: Serratia marcescens expressing IMP-1 (CL5741); assay: as above; assay type: cell-based; settings: for Serratia marcescens expressing IMP-1 (CL5741) MITC95: concentration giving 95% inhibition of bacterial growth
How it was run: as §1

NDM-1 = NDM-1 (Klebsiella pneumoniae, UniProt C7C422); assay: biochemical; assay type: biochemical
VIM-1 = VIM-1 (Pseudomonas aeruginosa (strain ATCC 15692 / DSM 22644 / CIP 104116 / JCM 14847 / LMG 12228 / 1C / PRS 101 / PAO1), UniProt A0A0F7KYQ8); assay: Enzyme activity: determination of IC50, fluorescence assay with CCF2-FA substrate (VIM-1); assay type: biochemical
[4] = fluorescence assay with CCF2-FA substrate
[5] = fluorescence assay with CCF2-FA substrate, read-out: NDM-1 IC50
[6] = fluorescence assay with CCF2-FA substrate, read-out: VIM-1 IC50
[7] = IMP-1 enzyme, CCF2-FA fluorescence assay
[8] = Klebsiella pneumoniae expressing VIM-1 (IHMA599644), 95% growth inhibition
[9] = Escherichia coli expressing NDM-1 (CLB30016), 95% growth inhibition
[10] = Serratia marcescens expressing IMP-1 (CL5741), 95% growth inhibition
[11] = NDM-1 enzyme, CCF2-FA fluorescence assay, read-out: NDM-1 IC50
[12] = VIM-1 enzyme, CCF2-FA fluorescence assay, read-out: VIM-1 IC50
[13] = IMP-1 enzyme, CCF2-FA substrate
[14] = Klebsiella pneumoniae IHMA599644 (VIM-1), 95% growth inhibition
[15] = (CLB30016, NDM-1), 95% growth inhibition
[16] = Serratia marcescens CL5741 (IMP-1), 95% growth inhibition
[17] = NDM-1 enzyme, CCF2-FA substrate, read-out: NDM-1 IC50
[18] = VIM-1 enzyme, CCF2-FA substrate, read-out: VIM-1 IC50
[19] = VIM-1 IC50, VIM-1 enzyme, CCF2-FA substrate

Chain of NDM-1 (C7C422 whole entry, looked up, species assumed): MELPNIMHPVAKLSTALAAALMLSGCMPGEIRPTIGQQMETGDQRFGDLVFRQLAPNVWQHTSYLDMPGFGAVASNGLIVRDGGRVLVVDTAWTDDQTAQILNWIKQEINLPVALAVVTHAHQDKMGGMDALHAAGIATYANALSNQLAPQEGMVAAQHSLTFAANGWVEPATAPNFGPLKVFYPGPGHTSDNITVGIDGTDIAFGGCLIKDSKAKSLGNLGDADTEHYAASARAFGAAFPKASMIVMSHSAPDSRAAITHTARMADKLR
Chain of IMP-1 (P52699 whole entry, looked up): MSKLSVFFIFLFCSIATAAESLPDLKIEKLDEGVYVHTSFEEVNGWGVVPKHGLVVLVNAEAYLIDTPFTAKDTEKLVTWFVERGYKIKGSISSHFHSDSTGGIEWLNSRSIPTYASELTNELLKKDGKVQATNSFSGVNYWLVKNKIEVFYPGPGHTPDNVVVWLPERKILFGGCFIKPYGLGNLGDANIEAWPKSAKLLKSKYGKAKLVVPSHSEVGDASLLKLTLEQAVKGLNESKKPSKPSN

NS(=O)(=O)c1cccc(-c2ccc(-n3cccn3)nc2)c1-c1nnn[nH]1 [Example 117, 3-(6-(1H-pyrazol-1-yl)pyridin-3-yl)-2-(1H-tetrazol-5-yl)benzenesulfonamide]
IC50 (IMP-1; [4]): 134 nM
Klebsiella pneumoniae expressing VIM-1 (IHMA 599644) MITC95 [1]: 100 µM
Escherichia coli expressing NDM-1 (CLB 30016) MITC95 [2]: 1.172 µM
Serratia marcescens expressing IMP-1 (CL5741) MITC95 [3]: 6.25 µM
IC50 (NDM-1; [5]): 5.18 nM
IC50 (VIM-1; [6]): 135 nM

N=C(N)NCc1ccc(-c2ccc(C(F)(F)F)c(S(N)(=O)=O)c2-c2nn[nH]n2)cc1 [Example 440, 4′-(guanidinomethyl)-2-(2H-tetrazol-5-yl)-4-(trifluoromethyl)-[1,1′-biphenyl]-3-sulfonamide]
IC50 (IMP-1; [7]): 3.37 nM
Klebsiella pneumoniae MITC95 [1, 8]: 0.7656 µM
Escherichia coli MITC95 [2, 9]: 0.25 µM
Serratia marcescens MITC95 [3, 10]: 0.0625 µM
IC50 (NDM-1; [11]): 3.91 nM
IC50 (VIM-1; [12]): 0.357 nM

Cc1nc(CNCc2ccc(-c3cccc(S(N)(=O)=O)c3-c3nnn[nH]3)cc2)no1 [Example 360, 4′-({[(5-methyl-1,2,4-oxadiazol-3-yl)methyl]amino}methyl)-2-(1H-tetrazol-5-yl)biphenyl-3-sulfonamide]
IC50 (IMP-1; [7]): 37.6 nM
Klebsiella pneumoniae MITC95 [1, 8]: >200 µM
Escherichia coli MITC95 [2, 9]: 2.344 µM
Serratia marcescens MITC95 [3, 10]: 2.344 µM
IC50 (NDM-1; [11]): 1.52 nM
IC50 (VIM-1; [12]): 232 nM

NC(=O)C1CCN(Cc2ccc(-c3cccc(S(N)(=O)=O)c3-c3nnn[nH]3)cc2)C1 (stereo not drawn) [Example 337, 1-((3′-sulfamoyl-2′-(1H-tetrazol-5-yl)-[1,1′-biphenyl]-4-yl)methyl)pyrrolidine-3-carboxamide]
IC50 (IMP-1; [7]): 69.8 nM
Klebsiella pneumoniae MITC95 [1, 8]: 75 µM
Escherichia coli MITC95 [2, 9]: 0.3906 µM
Serratia marcescens MITC95 [3, 10]: 2.344 µM
IC50 (NDM-1; [11]): 4.38 nM
IC50 (VIM-1; [12]): 321 nM

NS(=O)(=O)c1c(CC2(F)CCNC2)ccc(-c2ccc(C3CCNCC3)cc2)c1-c1nn[nH]n1 (stereo not drawn) [Example 467, 4-((3-fluoropyrrolidin-3-yl)methyl)-4′-(piperidin-4-yl)-2-(2H-tetrazol-5-yl)-[1,1′-biphenyl]-3-sulfonamide]
IC50 (IMP-1; [7]): 34.8 nM
Klebsiella pneumoniae MITC95 [1, 8]: 1.563 µM
Escherichia coli MITC95 [2, 9]: 0.7813 µM
Serratia marcescens MITC95 [3, 10]: 1.563 µM
IC50 (NDM-1; [11]): 10.2 nM
IC50 (VIM-1; [12]): 4.75 nM

NS(=O)(=O)c1nccc(N2CCC(O)CC2)c1-c1nnn[nH]1 [Example 242, 4-(4-hydroxypiperidin-1-yl)-3-(1H-tetrazol-5-yl)pyridine-2-sulfonamide]
IC50 (IMP-1; [7]): 1120 nM
Klebsiella pneumoniae MITC95 [1, 8]: 6.25 µM
Escherichia coli MITC95 [2, 9]: 0.3906 µM
Serratia marcescens MITC95 [3, 10]: 25 µM
IC50 (NDM-1; [11]): 103 nM
IC50 (VIM-1; [12]): 270 nM

N#Cc1ccccc1Cc1cccc(S(N)(=O)=O)c1-c1nnn[nH]1 [Example 166, 3-(2-cyanobenzyl)-2-(1H-tetrazol-5-yl)benzenesulfonamide]
IC50 (IMP-1; [4]): 74.5 nM
Klebsiella pneumoniae expressing VIM-1 (IHMA 599644) MITC95 [1]: 100 µM
Escherichia coli expressing NDM-1 (CLB 30016) MITC95 [2]: 2.344 µM
Serratia marcescens expressing IMP-1 (CL5741) MITC95 [3]: 3.906 µM
IC50 (NDM-1; [5]): 6.89 nM
IC50 (VIM-1; [6]): 18.8 nM

NS(=O)(=O)c1cccc(-c2ccc(CN3CC(F)(F)C3)cc2)c1-c1nnn[nH]1 [Example 372, 4′-[(3,3-difluoroazetidin-1-yl)methyl]-2-(1H-tetrazol-5-yl)biphenyl-3-sulfonamide]
IC50 (IMP-1; [7]): 15.7 nM
Klebsiella pneumoniae MITC95 [1, 8]: >200 µM
Escherichia coli MITC95 [2, 9]: 7.813 µM
Serratia marcescens MITC95 [3, 10]: 1.563 µM
IC50 (NDM-1; [11]): 4.91 nM
IC50 (VIM-1; [12]): 470 nM

Nc1ncc(-c2ccc(-c3cccc4sc(N)nc34)c(-c3nn[nH]n3)c2S(N)(=O)=O)s1 [Example 536, 3-(2-Aminobenzo[d]thiazol-4-yl)-6-(2-aminothiazol-5-yl)-2-(2H-tetrazol-5-yl)benzenesulfonamide]
IC50 (IMP-1; [13]): 39.4 nM
Klebsiella pneumoniae MITC95 [1, 14]: 25 µM
Escherichia coli MITC95 [2, 15]: 6.25 µM
Serratia marcescens MITC95 [3, 16]: 50 µM
IC50 (NDM-1; [17]): 2.71 nM
IC50 (VIM-1; [18]): 4.12 nM

Nc1cnc(-c2cccc(S(N)(=O)=O)c2-c2nnn[nH]2)cn1 [Example 402, 3-(5-aminopyrazin-2-yl)-2-(1H-tetrazol-5-yl)benzenesulfonamide]
IC50 (IMP-1; [7]): 389 nM
Klebsiella pneumoniae MITC95 [1, 8]: 25 µM
Escherichia coli MITC95 [2, 9]: 0.3906 µM
Serratia marcescens MITC95 [3, 10]: 6.25 µM
IC50 (NDM-1; [11]): 8.09 nM
IC50 (VIM-1; [12]): 349 nM

Nc1ccc(-c2ccc(CCC3CCNCC3)c(S(N)(=O)=O)c2-c2nnn[nH]2)cn1 [Example 581, 3-(6-aminopyridin-3-yl)-6-(2-(piperidin-4-yl)ethyl)-2-(1H-tetrazol-5-yl)benzenesulfonamide]
IC50 (IMP-1; [13]): 268 nM
Klebsiella pneumoniae MITC95 [1, 14]: 12.5 µM
Escherichia coli MITC95 [2, 15]: 0.3906 µM
Serratia marcescens MITC95 [3, 16]: 6.25 µM
IC50 (NDM-1; [17]): 8.23 nM
IC50 (VIM-1; [18]): 36.8 nM

NS(=O)(=O)c1nccc(N2CCC(c3ncc[nH]3)CC2)c1-c1nnn[nH]1 [Example 240, 4-[4-(1H-imidazol-2-yl)piperidin-1-yl]-3-(1H-tetrazol-5-yl)pyridine-2-sulfonamide]
IC50 (IMP-1; [4]): 3410 nM
Klebsiella pneumoniae expressing VIM-1 (IHMA 599644) MITC95 [1]: 25 µM
Escherichia coli expressing NDM-1 (CLB 30016) MITC95 [2]: 1.172 µM
Serratia marcescens expressing IMP-1 (CL5741) MITC95 [3]: 37.5 µM
IC50 (NDM-1; [5]): 418 nM
IC50 (VIM-1; VIM-1 IC50, fluorescence assay with CCF2-FA substrate): 938 nM

N#Cc1cc(-c2ccc(C(F)(F)F)c(S(N)(=O)=O)c2-c2nnn[nH]2)c2[nH]c(N)nc2c1 [Example 569, 3-(2-amino-5-cyano-1H-benzo[d]imidazol-7-yl)-2-(1H-tetrazol-5-yl)-6-(trifluoromethyl)benzenesulfonamide]
IC50 (IMP-1; [13]): 1.62 nM
Klebsiella pneumoniae MITC95 [1, 14]: 6.25 µM
Escherichia coli MITC95 [2, 15]: 6.25 µM
Serratia marcescens MITC95 [3, 16]: 3.125 µM
IC50 (NDM-1; [17]): 0.215 nM
IC50 (VIM-1; [18]): 0.309 nM

NC1CCC(N[C@H]2CC[C@H](c3ccc(C(F)(F)F)c(S(N)(=O)=O)c3-c3nnn[nH]3)CC2)C1 (stereo partly drawn) [Example 703, 3-{4-[(3-aminocyclopentyl)amino]cyclohexyl}-2-(1H-tetrazol-5-yl)-6-(trifluoromethyl)benzene sulfonamide]
IC50 (IMP-1; [13]): 38 nM
Klebsiella pneumoniae MITC95 [1, 14]: 12.5 µM
Escherichia coli MITC95 [2, 15]: 0.3906 µM
Serratia marcescens MITC95 [3, 16]: 3.125 µM
IC50 (NDM-1; [17]): 6.14 nM
IC50 (VIM-1; [19]): 8.38 nM

NC1CCCC(N[C@H]2CC[C@H](c3ccc(C(F)(F)F)c(S(N)(=O)=O)c3-c3nnn[nH]3)CC2)C1 (stereo partly drawn) [Example 687, 3-{4-[(3-aminocyclohexyl)amino]cyclohexyl}-2-(1H-tetrazol-5-yl)-6-(trifluoromethyl)benzene sulfonamide]
IC50 (IMP-1; [13]): 94.3 nM
Klebsiella pneumoniae MITC95 [1, 14]: 25 µM
Escherichia coli MITC95 [2, 15]: 3.125 µM
Serratia marcescens MITC95 [3, 16]: 6.25 µM
IC50 (NDM-1; [17]): 25.2 nM
IC50 (VIM-1; [19]): 27.8 nM

Cc1cccn2c(-c3cccc(S(N)(=O)=O)c3-c3nnn[nH]3)cnc12 [Example 139, 3-(8-methylimidazo[1,2-a]pyridin-3-yl)-2-(1H-tetrazol-5-yl)benzenesulfonamide]
IC50 (IMP-1; [4]): 98.4 nM
Klebsiella pneumoniae expressing VIM-1 (IHMA 599644) MITC95 [1]: 12.5 µM
Escherichia coli expressing NDM-1 (CLB 30016) MITC95 [2]: 0.1953 µM
Serratia marcescens expressing IMP-1 (CL5741) MITC95 [3]: 6.25 µM
IC50 (NDM-1; [5]): 0.637 nM
IC50 (VIM-1; [6]): 5.78 nM

NC1CCCC(N2CC(c3ccc(-c4ccc(C(F)(F)F)c(S(N)(=O)=O)c4-c4nnn[nH]4)cc3)C2)C1 (stereo not drawn) [Example 810, 4′-[1-(3-aminocyclohexyl)azetidin-3-yl]-2-(1H-tetrazol-5-yl)-4-(trifluoromethyl)biphenyl-3-sulfonamide]
IC50 (IMP-1; [4]): 8.92 nM
Klebsiella pneumoniae MITC95 ([1]; IHMA599644 (VIM-1), 95% inhibition of bacterial growth): 100 µM
Escherichia coli MITC95 ([2]; CLB30016 (NDM-1), 95% inhibition of bacterial growth): 3.125 µM
Serratia marcescens MITC95 ([3]; CL5741 (IMP-1), 95% inhibition of bacterial growth): 6.25 µM
IC50 (NDM-1; [5]): 7.06 nM
IC50 (VIM-1; [6]): 26.8 nM

Nc1ncc(-c2ccc(C(F)(F)F)c(S(N)(=O)=O)c2-c2nnn[nH]2)cc1F [Example 476, 3-(6-amino-5-fluoro-3-pyridyl)-2-(1H-tetrazol-5-yl)-6-(trifluoromethyl)benzenesulfonamide]
IC50 (IMP-1; [7]): 3.98 nM
Klebsiella pneumoniae MITC95 [1, 8]: 1.563 µM
Escherichia coli MITC95 [2, 9]: 1.563 µM
Serratia marcescens MITC95 [3, 10]: 0.5859 µM
IC50 (NDM-1; [11]): 1.79 nM
IC50 (VIM-1; [12]): 0.263 nM

NS(=O)(=O)c1c(CCC2CCNCC2)ccc(-c2ccc(C3CCNCC3)cc2)c1-c1nn[nH]n1 [Example 460, 4′-(piperidin-4-yl)-4-(2-(piperidin-4-yl)ethyl)-2-(2H-tetrazol-5-yl)-[1,1′-biphenyl]-3-sulfonamide]
IC50 (IMP-1; [7]): 16.6 nM
Klebsiella pneumoniae MITC95 [1, 8]: 1.563 µM
Escherichia coli MITC95 [2, 9]: 0.5859 µM
Serratia marcescens MITC95 [3, 10]: 0.3906 µM
IC50 (NDM-1): 3.97 nM
IC50 (VIM-1; [12]): 10.4 nM
